Experimental findings from patent publication US9562035B2, “Benzamide derivative useful as FASN inhibitors for the treatment of cancer” (Janssen Pharmaceutica NV, priority 2013, dated 2017) are described below.

In experiment [1] the test system is A2780 ovarian cells. Briefly: A2780 Ovarian Cell Proliferation Assay in Lipid Reduced Medium, with Palmitate (control). The note with it: Homo sapiens, A2780; lipid reduced medium, 25 μM palmitate, 96 h, MTT; read-out: Proliferation A2780 with Palmitate pIC50 (converted). Format: cell-based. On the procedure: (§1) The biological assays described below correspond to comparative assays for ovarian cell proliferation. […] Compounds active in the absence of palmitate would not be expected to be active in the control.
(§2) 2500 cells were seeded in a 96-well clear well plate in 200 μL RPMI1640 with 10% Fetal Calf Serum (Hyclone), and incubated at 37° C., 5% CO2. Blanks were wells without cells. The next day the culture medium was aspirated and replaced by 160 μL culture medium with 10% Lipid-Reduced Serum (LRS, Hyclone). 20 μL test compound (at concentrations of 30 μM, 10 μM, 3 μM, 1 μM, 0.30 μM, 0.10 μM, 0.03 μM and 0.01 μM)/DMSO dilution followed by 20 μL palmitate-BSA solution were added to a final concentrations of 0.2% DMSO, 25 μM palmitate (Sigma, P0500, 10 mM stock solution in ethanol) 0.2% fatty-acid-free BSA, 0.25% ethanol. After 96 h incubation, an MTT assay was performed. The absorbance was measured at 544 nm on a SPECTRAMAX.
A best fit curve was fitted by a minimum sum of squares method, plotting Controlmin versus test compound concentration. From the plot, an IC50 (concentration at which 50% inhibition is achieved) was calculated. pIC50 values, presented in the Table below, were calculated as −log(IC50).
(§3) Representative compounds of the present invention were tested according to the procedure as described in Biological Example 3 above, with results as listed in Table BIO-3, below.

Experiment [2] addresses T1, hFASN enzyme (full length) (Homo sapiens, UniProt P49327).
T1 construct: 10 μL hFASN enzyme (full length, 300 ng, purified in house); made in house
The experiment is described as follows: Fatty Acid Synthase (FASN) Inhibition Scintillation Proximity Assay. The experiment is classed as biochemical. The note with it: for IC50: mean where tested more than once, ~ = standard error of pIC50 larger than 0.5; for inhibition at 10 µM: read-out: FASN % Effect @1E−05M. On the procedure:
In this assay, inhibition of FASN activity is measured using ^3H-acetyl-CoA and malonyl-CoA as substrates. ^3H-Acetyl CoA is converted to ^3H-palmitate through a series of reactions by the FASN protein, which contains 7 functional domains and carries out 7 enzymatic reactions to ultimately produce ^3H-palmitate. The assay principle is based upon the fact that ^3H-acetyl-CoA is hydrophilic and the end product, ^3H-palmitate is hydrophobic.
10 μL assay buffer (100 mM KH2PO4 pH 7.5, 1 mM DTT) (20 μL in blanks) was added to a 384-well white Opti Plate plate (Perkin Elmer). 0.9 μL test compound (at concentrations of 30 μM, 10 μM, 3 μM, 1 μM, 0.30 μM, 0.10 μM, 0.03 μM and 0.01 μM)/DMSO and 10 μL hFASN enzyme (full length, 300 ng, purified in house) or 10 μL assay buffer was added to the wells. Then 10 μL 450 μM NADPH (Sigma N7505), 18.75 μM [^3H]-acetyl-CoA (Perkin Elmer NET-290L), 150 μM malonyl-CoA (Sigma M4263) were added, mixed and incubated at room temperature for 60 minutes. The reaction was stopped by adding 20 μL Streptavidin coupled imaging beads (25 mg/ml). After incubation for 30 minutes at room temperature in the dark, the 384 well plate was centrifuged at 1500 rpm for 3 minutes and was measured after at least 24 hrs by the LEADseeker™, measuring emission using a 610±20 nm pass filter. (Bays, N. W., et al., “A simplified scintillation proximity assay for fatty acid synthase activity: development and comparison with other FAS activity assays”, J. Biomol. Screen, 2009, pp 636-642, Vol. 14(6).)
(§4) Raw data generated by the instrument were normalized to % Controlmin values, which were calculated as: % Controlmin=100*(x−mLC)/(mHC−mLC)
(§5) where mLC and mHC were the means of the low control wells and high control wells on the plate, after manual exclusion of outliers. A plot of Controlmin versus test compound concentration was fitted to a 4-parameter logistic curve using a non-linear least squares regression method. From the plot, an IC50 (concentration at which 50% inhibition is achieved) was calculated. pIC50 values were calculated as −log(IC50), when IC50 is expressed in molar units.

Experiment [3] deals with T2, FASN Keto-reductase Domain (Homo sapiens, UniProt P49327).
T2 construct: 10 μL hFASN enzyme (full length, 300 ng, purified in house) and 360 μM NADPH; made in house
Briefly: Fatty Acid Synthase Keto-Reductase Domain (FASN KR) Inhibition. The experiment is classed as biochemical. The note with it: mean where tested more than once; read-out: FASN K-R Domain pIC50 (converted). On the procedure: 10 μL assay buffer (100 mM KH2PO4 pH 7.5) was added to a 384-well clear plate (costar 3702). 0.3 μL compound (at concentrations of 30 μM, 10 μM, 3 μM, 1 μM, 0.30 μM, 0.10 μM, 0.03 μM and 0.01 μM)/DMSO, 10 μL hFASN enzyme (full length, 300 ng, purified in house) and 360 μM NADPH (except in blank) were then added. Then, 10 μL 180 mM ethyl acetoacetate (Aldrich 688983) was added, mixed and immediately thereafter, the absorbance at 340 nm (T1) by Multiscan (Labsystems) was measured. After 20 minutes incubation at room temperature the plate was measured again (T2).
The decrease in absorbance was calculated as (Absorbance before incubation T1)−(Absorbance following incubation T2).
as §4, §5

Experiment [4] has as its system A2780 ovarian cells. Briefly: A2780 Ovarian Cell Proliferation Assay in Lipid Reduced Medium, without Palmitate. The note with it: Homo sapiens, A2780; lipid reduced medium, without palmitate, 96 h, MTT; read-out: Proliferation A2780 w/o Palmitate pIC50 (converted). The experiment is classed as cell-based. How it is done:
as §1
as §2, with “ethanol-BSA” for “palmitate-BSA”, “DMSO,” for “DMSO, 25 μM palmitate (Sigma, P0500, 10 mM stock solution in ethanol)”, “incubation” for “incubation,”
as §4, §5, §3

Molecules are shown by their SMILES.

T1 sequence (P49327 whole entry): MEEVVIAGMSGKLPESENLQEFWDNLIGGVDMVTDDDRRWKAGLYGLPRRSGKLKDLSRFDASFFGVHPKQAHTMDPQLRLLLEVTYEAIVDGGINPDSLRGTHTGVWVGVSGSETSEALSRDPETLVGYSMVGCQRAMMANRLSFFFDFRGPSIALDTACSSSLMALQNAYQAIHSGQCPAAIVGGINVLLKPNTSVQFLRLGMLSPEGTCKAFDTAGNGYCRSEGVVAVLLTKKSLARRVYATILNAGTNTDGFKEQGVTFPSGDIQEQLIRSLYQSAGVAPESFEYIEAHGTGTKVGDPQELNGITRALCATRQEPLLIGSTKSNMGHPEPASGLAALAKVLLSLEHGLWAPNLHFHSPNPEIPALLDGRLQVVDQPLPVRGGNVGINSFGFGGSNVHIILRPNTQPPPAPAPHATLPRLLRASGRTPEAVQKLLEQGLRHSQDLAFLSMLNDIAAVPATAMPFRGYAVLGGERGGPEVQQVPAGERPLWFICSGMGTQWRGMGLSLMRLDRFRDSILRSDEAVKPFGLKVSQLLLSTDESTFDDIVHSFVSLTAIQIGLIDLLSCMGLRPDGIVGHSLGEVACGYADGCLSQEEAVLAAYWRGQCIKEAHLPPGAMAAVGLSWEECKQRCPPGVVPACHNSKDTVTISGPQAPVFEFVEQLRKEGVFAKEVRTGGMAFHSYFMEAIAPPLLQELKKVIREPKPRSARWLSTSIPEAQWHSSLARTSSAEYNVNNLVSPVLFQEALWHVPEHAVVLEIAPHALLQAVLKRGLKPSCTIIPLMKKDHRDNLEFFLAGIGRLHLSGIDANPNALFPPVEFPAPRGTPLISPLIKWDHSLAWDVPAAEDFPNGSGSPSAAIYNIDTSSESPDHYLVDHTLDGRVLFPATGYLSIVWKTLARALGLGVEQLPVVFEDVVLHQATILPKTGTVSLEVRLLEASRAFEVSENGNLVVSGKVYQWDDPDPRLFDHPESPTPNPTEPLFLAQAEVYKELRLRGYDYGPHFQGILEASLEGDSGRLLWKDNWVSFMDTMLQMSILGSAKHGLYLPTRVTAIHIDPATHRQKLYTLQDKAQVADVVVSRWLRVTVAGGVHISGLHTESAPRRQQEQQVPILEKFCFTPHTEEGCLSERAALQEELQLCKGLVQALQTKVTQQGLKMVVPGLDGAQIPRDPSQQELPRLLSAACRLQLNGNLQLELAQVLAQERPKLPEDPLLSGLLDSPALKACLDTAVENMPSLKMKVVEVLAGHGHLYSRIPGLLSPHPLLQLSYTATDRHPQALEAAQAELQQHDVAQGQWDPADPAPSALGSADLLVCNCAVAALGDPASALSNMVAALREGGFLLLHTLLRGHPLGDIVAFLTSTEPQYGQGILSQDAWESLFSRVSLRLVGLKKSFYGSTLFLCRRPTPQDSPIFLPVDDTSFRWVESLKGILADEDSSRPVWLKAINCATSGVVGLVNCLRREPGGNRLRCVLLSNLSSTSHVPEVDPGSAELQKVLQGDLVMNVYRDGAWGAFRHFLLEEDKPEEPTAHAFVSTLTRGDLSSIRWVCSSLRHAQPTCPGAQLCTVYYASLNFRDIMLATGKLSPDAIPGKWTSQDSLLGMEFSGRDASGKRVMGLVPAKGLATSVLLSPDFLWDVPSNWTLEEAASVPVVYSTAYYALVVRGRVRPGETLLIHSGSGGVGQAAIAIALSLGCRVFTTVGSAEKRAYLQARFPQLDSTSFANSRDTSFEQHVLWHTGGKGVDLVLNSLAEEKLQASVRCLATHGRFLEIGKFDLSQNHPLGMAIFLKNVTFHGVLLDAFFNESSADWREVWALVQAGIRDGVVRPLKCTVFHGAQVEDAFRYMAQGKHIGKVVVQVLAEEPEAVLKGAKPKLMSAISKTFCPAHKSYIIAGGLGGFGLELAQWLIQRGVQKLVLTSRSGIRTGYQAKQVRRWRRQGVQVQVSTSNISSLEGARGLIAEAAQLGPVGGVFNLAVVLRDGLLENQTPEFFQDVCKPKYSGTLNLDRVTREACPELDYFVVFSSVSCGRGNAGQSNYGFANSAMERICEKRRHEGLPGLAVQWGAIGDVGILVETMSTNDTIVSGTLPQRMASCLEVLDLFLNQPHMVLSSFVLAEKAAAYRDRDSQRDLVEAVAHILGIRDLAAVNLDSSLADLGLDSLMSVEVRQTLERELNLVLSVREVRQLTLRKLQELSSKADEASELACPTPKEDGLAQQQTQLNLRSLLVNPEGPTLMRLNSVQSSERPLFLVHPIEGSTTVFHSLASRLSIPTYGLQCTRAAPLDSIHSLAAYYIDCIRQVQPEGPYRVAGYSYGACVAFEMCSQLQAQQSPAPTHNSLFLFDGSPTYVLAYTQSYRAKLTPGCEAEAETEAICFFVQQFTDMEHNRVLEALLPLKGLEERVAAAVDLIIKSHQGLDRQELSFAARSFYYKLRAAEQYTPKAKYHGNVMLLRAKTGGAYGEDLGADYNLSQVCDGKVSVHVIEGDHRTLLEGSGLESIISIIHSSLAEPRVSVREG
T2 sequence (P49327 whole entry, the tested form may be a part): as the sequence (P49327 whole entry) above

As for `Cc1ccc(C(=O)N2CCC(c3ccc(-c4cnn(C)c4)cc3)CC2)cc1NC(=O)[C@H]1CCCN1` [Compound 172, (R)—N-(2-methyl-5-(4-(4-(1-methyl-1H-pyrazol-4-yl)phenyl)piperidine-1-carbonyl)phenyl)pyrrolidine-2-carboxamide], the IC50 was more than 10 µM in the experiment on A2780 ovarian cells [1], 0.49 µM in experiment [2], 0.741 µM in experiment [3] and 0.794 µM in the experiment with A2780 ovarian cells [4]. In experiment [2], the inhibition at 10 µM came to 91%.
On the same counts, the results for `Cc1ccc(C(=O)N2CC(c3ccc(-c4cnn(C)c4)cc3)C2)cc1NC(=O)c1ccccn1` [Compound 80, N-(2-methyl-5-(3-(4-(1-methyl-1H-pyrazol-4-yl)phenyl)azetidine-1-carbonyl)phenyl)picolinamide] are more than 15.1 µM, 0.0513 µM, 0.234 µM, 0.692 µM and 110%.
The like results for `Cc1ccc(C(=O)N2CC(c3ccc(-c4cnn(C)c4)cc3)C2)cc1NC(=O)c1cccs1` [Compound 84, N-(2-methyl-5-(3-(4-(1-methyl-1H-pyrazol-4-yl)phenyl)azetidine-1-carbonyl)phenyl)thiophene-2-carboxamide] were, in that order, more than 10 µM, 0.0372 µM, 0.162 µM, 0.234 µM and 103%.
For `Cc1ccc(C(=O)N2CCC(c3ccc(-c4cnn(C)c4)cc3)CC2)cc1NC(=O)c1cccc(Cl)c1` [Compound 95, 3-chloro-N-(2-methyl-5-(4-(4-(1-methyl-1H-pyrazol-4-yl)phenyl)piperidine-1-carbonyl)phenyl)benzamide], the IC50 is 3.47 µM with A2780 ovarian cells [1], 0.0263 µM in experiment [2], 0.151 µM in experiment [3] and 0.263 µM in the experiment on A2780 ovarian cells [4]. The inhibition at 10 µM in experiment [2] was determined as 105%.
On the same counts, the results for `Cc1ccc(C(=O)N2CCC(c3ccc4c(c3)CC(=O)N4)CC2)cc1NC(=O)c1ccc(Cl)nc1` [Compound 50, 6-chloro-N-(2-methyl-5-(4-(2-oxoindolin-5-yl)piperidine-1-carbonyl)phenyl)nicotinamide] are more than 10 µM, 0.309 µM, 0.603 µM, 1.23 µM and 93%.
The like results for `Cc1ccc(C(=O)N2CCC(c3ccc(-c4cnn(C)c4)cc3)CC2)cc1NC(=O)c1ccc(C(F)(F)F)cc1` [Compound 145, N-(2-methyl-5-(4-(4-(1-methyl-1H-pyrazol-4-yl)phenyl)piperidine-1-carbonyl)phenyl)-4-(trifluoromethyl)benzamide] were, in that order, 10.5 µM, 0.0219 µM, 0.0339 µM, 0.0692 µM and 103%.
The like results for `Cc1ccc(C(=O)N2CCC(c3ccc(-c4cnn(C)c4)cc3)CC2)cc1NC(=O)c1ccccc1C(F)(F)F` [Compound 132, N-(2-methyl-5-(4-(4-(1-methyl-1H-pyrazol-4-yl)phenyl)piperidine-1-carbonyl)phenyl)-2-(trifluoromethyl)benzamide] were, in that order, more than 10 µM, 0.12 µM, 0.204 µM, 0.339 µM and 97%.
For `Cc1ccc(C(=O)N2CCC(c3ccc4ccncc4c3)CC2)cc1NC(=O)c1ccc(NC(C)C)nc1` [Compound 28, 6-(isopropylamino)-N-(5-(4-(isoquinolin-7-yl)piperidine-1-carbonyl)-2-methylphenyl)nicotinamide], the IC50 with A2780 ovarian cells [1] was 2.45 µM; in experiment [2], 0.174 µM; in experiment [3] it was 0.282 µM; in the experiment on A2780 ovarian cells [4], approximately 0.204 µM. The inhibition at 10 µM in experiment [2] turned out to be 101%.
On the same counts, the results for `Cc1ccc(C(=O)N2CCC(c3ccc(-c4cnn(CC5CCC5)c4)cc3)CC2)cc1NC(=O)c1ccc(NC(C)C)nc1` [Compound 221, N-(5-(4-(4-(1-(cyclobutylmethyl)-1H-pyrazol-4-yl)phenyl)piperidine-1-carbonyl)-2-methylphenyl)-6-(isopropylamino)nicotinamide] are 5.01 µM, 0.0759 µM, 0.245 µM, 0.0912 µM and 109%.
On to `Cc1ccc(C(=O)N2CCC(c3ccc(-c4cnn(C)c4)cc3)CC2)cc1NC(=O)C1CCN(CC(C)(C)C)CC1` [Compound 178, N-(2-methyl-5-(4-(4-(1-methyl-1H-pyrazol-4-yl)phenyl)piperidine-1-carbonyl)phenyl)-1-neopentylpiperidine-4-carboxamide], for which the IC50 in the experiment on A2780 ovarian cells [1] is more than 10 µM; in experiment [2] it was 0.0457 µM; in experiment [3], 0.0589 µM; in the experiment with A2780 ovarian cells [4], 0.0269 µM. Further, in experiment [2], the inhibition at 10 µM came to 106%.
On the same counts, the results for `CCCCN1CCC(C(=O)Nc2cc(C(=O)N3CCC(c4ccc(-c5cnn(C)c5)cc4)CC3)ccc2C)CC1` [Compound 211, 1-butyl-N-(2-methyl-5-(4-(4-(1-methyl-1H-pyrazol-4-yl)phenyl)piperidine-1-carbonyl)phenyl)piperidine-4-carboxamide] are more than 10 µM, 0.0316 µM, 0.0741 µM, 0.0186 µM and 113%.
Regarding `Cc1ccc(C(=O)N2CC(c3ccc(-c4ccnn4C)cc3)C2)cc1NC(=O)c1ccc(N2CCN(C)CC2)nc1` [Compound 59, N-(2-methyl-5-(3-(4-(1-methyl-1H-pyrazol-5-yl)phenyl)azetidine-1-carbonyl)phenyl)-6-(4-methylpiperazin-1-yl)nicotinamide], the IC50 was 7.24 µM with A2780 ovarian cells [1], 0.0562 µM in experiment [2], 0.115 µM in experiment [3] and 0.0933 µM in the experiment on A2780 ovarian cells [4]. Moreover, the inhibition at 10 µM in experiment [2] is 103%.
